In ChEMBL document CHEMBL1201862, “PubChem BioAssay data set” (2004):
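Grown in 96-well plates, cells were treated for 48 hours with each compound at five concentrations. Insufficient inhibition: endpoint recorded as highest concentration tested. GI50 = concentration required for 50% inhibition of growth.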 The source made the active and inactive calls. Rule as the data show it: active = GI50 up to about 1.1 µM and inactive = higher.

Tests used:
Assay in all cases: growth of human tumour cells (NCI), 48 h
ACHN = test system: ACHN
K562 = test system: K562
HCT-116 = test system: HCT-116
HCC 2998 = test system: HCC 2998
A549 = test system: A549
MOLT-4 = test system: MOLT-4
KM12 = test system: KM12
RXF 393 = test system: RXF 393
OVCAR-4 = test system: OVCAR-4
SR = test system: SR
786-0 = test system: 786-0
UACC-62 = test system: UACC-62
SK-MEL-2 = test system: SK-MEL-2
LOX IMVI = test system: LOX IMVI
SN12C = test system: SN12C
EKVX = test system: EKVX
NCI-H522 = test system: NCI-H522
HL-60 = test system: HL-60
OVCAR-5 = test system: OVCAR-5
SK-MEL-28 = test system: SK-MEL-28

| SMILES | GI50 (ACHN) | GI50 (K562) | GI50 (HCT-116) | GI50 (HCC 2998) | GI50 (A549) | GI50 (MOLT-4) | GI50 (KM12) | GI50 (RXF 393) | GI50 (OVCAR-4) | GI50 (SR) | GI50 (786-0) | GI50 (UACC-62) | GI50 (SK-MEL-2) | GI50 (LOX IMVI) | GI50 (SN12C) | GI50 (EKVX) | GI50 (NCI-H522) | GI50 (HL-60) | GI50 (OVCAR-5) | GI50 (SK-MEL-28) |
| --- | --- | --- | --- | --- | --- | --- | --- | --- | --- | --- | --- | --- | --- | --- | --- | --- | --- | --- | --- | --- |
| CCOC(=O)NN1C(=O)C(=P(c2ccccc2)(c2ccccc2)c2ccccc2)C(C(=O)OC)=C1C | > 100 µM (inactive) | > 100 µM (inactive) | > 100 µM (inactive) | > 100 µM (inactive) | > 100 µM (inactive) | > 100 µM (inactive) | > 100 µM (inactive) | > 100 µM (inactive) | > 100 µM (inactive) | > 100 µM (inactive) | > 100 µM (inactive) | > 100 µM (inactive) | > 100 µM (inactive) | > 100 µM (inactive) | > 100 µM (inactive) | > 100 µM (inactive) | > 100 µM (inactive) | > 100 µM (inactive) | > 100 µM (inactive) |  |
| O=c1c2cc(Br)ccc2nc(CNc2ccccc2)n1-c1ccccc1 | 18.7 µM (inactive) | 14.6 µM (inactive) | 13.4 µM (inactive) | 19.5 µM (inactive) | 21.7 µM (inactive) | 9.59 µM (inactive) | 26.7 µM (inactive) | 15.7 µM (inactive) | 6.38 µM (inactive) | 6.52 µM (inactive) | 14.6 µM (inactive) | 8.51 µM (inactive) | 20.7 µM (inactive) | 7.5 µM (inactive) | 14.1 µM (inactive) | 21.9 µM (inactive) | 6.84 µM (inactive) | 16.8 µM (inactive) | 52.8 µM (inactive) | 22.4 µM (inactive) |
| O=C1C=CC(O)(C#CCO)C=C1 | 13.2 µM (inactive) | 2.92 µM (inactive) | 15.8 µM (inactive) | 17.5 µM (inactive) | 23.8 µM (inactive) | 10.3 µM (inactive) | 17.5 µM (inactive) | 4.02 µM (inactive) | 11.9 µM (inactive) | 2.98 µM (inactive) | 9.91 µM (inactive) | 15.6 µM (inactive) | 17.4 µM (inactive) | 10.5 µM (inactive) | 15.9 µM (inactive) | 18.4 µM (inactive) | 1.95 µM (inactive) | 3.17 µM (inactive) | 12.1 µM (inactive) | 12.9 µM (inactive) |
| O=C1OC2(C(F)(F)F)Oc3ccccc3CN2C12CCCCC2 (configuration not stated) | 19.7 µM (inactive) | 20.4 µM (inactive) | 20.2 µM (inactive) | 33.1 µM (inactive) | 28.6 µM (inactive) | 18.1 µM (inactive) | 23.8 µM (inactive) | 20.4 µM (inactive) | 31.8 µM (inactive) | 22.8 µM (inactive) | 35.3 µM (inactive) | 28 µM (inactive) |  | 22.4 µM (inactive) | 24.7 µM (inactive) | 38.2 µM (inactive) | 24.3 µM (inactive) | 16.5 µM (inactive) | 22 µM (inactive) | 55.2 µM (inactive) |
| CC1=NN(c2nc(N)nc(CSCc3nc(N)nc(N(C)C)n3)n2)C(C)(C)C1 | > 100 µM (inactive) | 18.2 µM (inactive) | > 100 µM (inactive) | > 100 µM (inactive) | > 100 µM (inactive) | > 100 µM (inactive) | > 100 µM (inactive) | > 100 µM (inactive) | > 100 µM (inactive) | > 100 µM (inactive) | > 100 µM (inactive) | > 100 µM (inactive) | > 100 µM (inactive) | > 100 µM (inactive) | > 100 µM (inactive) | > 100 µM (inactive) | > 100 µM (inactive) | > 100 µM (inactive) | > 100 µM (inactive) | > 100 µM (inactive) |
| O=c1c2c(F)c(F)c(F)c(F)c2sc2nccn12 | 16.4 µM (inactive) | 6.55 µM (inactive) | 13.9 µM (inactive) | 17.5 µM (inactive) | 19.5 µM (inactive) | 3.01 µM (inactive) | 17.1 µM (inactive) | 17.7 µM (inactive) | 19.5 µM (inactive) | 3.27 µM (inactive) | 15.2 µM (inactive) | 14.7 µM (inactive) | 19.1 µM (inactive) | 12.3 µM (inactive) | 18.5 µM (inactive) | 24.7 µM (inactive) | 18.9 µM (inactive) | 2.06 µM (inactive) | 20.4 µM (inactive) | 23.4 µM (inactive) |
| Cc1cc(S(=O)(=O)NC2=Nc3ccc(Cl)cc3C(c3ccccc3)N2)c(S)cc1Cl (configuration not stated) | > 100 µM (inactive) | 85.5 µM (inactive) | 36.8 µM (inactive) | > 100 µM (inactive) | 17.8 µM (inactive) | 62.5 µM (inactive) | 92.9 µM (inactive) | > 100 µM (inactive) | 43.6 µM (inactive) | 14.3 µM (inactive) | > 100 µM (inactive) | > 100 µM (inactive) |  | 47.5 µM (inactive) | > 100 µM (inactive) | > 100 µM (inactive) | > 100 µM (inactive) | > 100 µM (inactive) | > 100 µM (inactive) | > 100 µM (inactive) |
| COc1ccc(/C=N/C23CC4CC(CC(C4)C2)C3)cc1 | > 100 µM (inactive) | > 100 µM (inactive) | > 100 µM (inactive) | > 100 µM (inactive) | > 100 µM (inactive) | > 100 µM (inactive) | > 100 µM (inactive) | > 100 µM (inactive) | > 100 µM (inactive) | > 100 µM (inactive) | > 100 µM (inactive) | > 100 µM (inactive) | > 100 µM (inactive) | > 100 µM (inactive) | > 100 µM (inactive) | > 100 µM (inactive) | > 100 µM (inactive) | > 100 µM (inactive) | > 100 µM (inactive) | > 100 µM (inactive) |
| NS(=O)(=O)c1cc(C(=O)O)c(Cl)c([N+](=O)[O-])c1Cl | > 100 µM (inactive) | > 100 µM (inactive) | > 100 µM (inactive) | > 100 µM (inactive) | > 100 µM (inactive) | > 100 µM (inactive) | > 100 µM (inactive) | > 100 µM (inactive) | > 100 µM (inactive) | > 100 µM (inactive) | > 100 µM (inactive) | > 100 µM (inactive) | > 100 µM (inactive) | > 100 µM (inactive) | > 100 µM (inactive) | > 100 µM (inactive) | > 100 µM (inactive) | > 100 µM (inactive) | > 100 µM (inactive) | > 100 µM (inactive) |
| CS(=O)(=O)NNS(=O)(=O)c1cccc([N+](=O)[O-])c1 | > 100 µM (inactive) | > 100 µM (inactive) | > 100 µM (inactive) | > 100 µM (inactive) | > 100 µM (inactive) | > 100 µM (inactive) | > 100 µM (inactive) | > 100 µM (inactive) | > 100 µM (inactive) | > 100 µM (inactive) | > 100 µM (inactive) | > 100 µM (inactive) | > 100 µM (inactive) | > 100 µM (inactive) | > 100 µM (inactive) | > 100 µM (inactive) | > 100 µM (inactive) | > 100 µM (inactive) |  |  |
| C=C1C[C@]23C[C@@]1(O)CC[C@H]2[C@@]12C=C[C@H](O)[C@@](C)(C(=O)O1)[C@H]2[C@@H]3C(=O)O [GIBBERELLIN A3] |  | > 100 µM (inactive) | > 100 µM (inactive) | > 100 µM (inactive) | > 100 µM (inactive) | > 100 µM (inactive) | > 100 µM (inactive) | > 100 µM (inactive) | > 100 µM (inactive) | > 100 µM (inactive) | > 100 µM (inactive) | > 100 µM (inactive) | > 100 µM (inactive) | > 100 µM (inactive) | > 100 µM (inactive) | > 100 µM (inactive) | > 100 µM (inactive) | > 100 µM (inactive) | > 100 µM (inactive) | > 100 µM (inactive) |
| CCSc1c2cc(OC)ccc2nc2ccc(OC)cc12 | 18.6 µM (inactive) | 5.74 µM (inactive) | 6.05 µM (inactive) | 7.53 µM (inactive) | 25.6 µM (inactive) | 3.22 µM (inactive) | 11.2 µM (inactive) | 11.6 µM (inactive) | 11.7 µM (inactive) | 2.76 µM (inactive) | 16 µM (inactive) | 10.9 µM (inactive) | 18.8 µM (inactive) | 13.2 µM (inactive) | 14.3 µM (inactive) | 9.84 µM (inactive) | 9.33 µM (inactive) | 2.62 µM (inactive) | 8.09 µM (inactive) | 14.9 µM (inactive) |
| COC(=O)c1c(C)[nH]c2c1cc(O)c1nc(C)c(C)nc12 | 35.5 µM (inactive) | > 100 µM (inactive) | 42.2 µM (inactive) | > 100 µM (inactive) | > 100 µM (inactive) | > 100 µM (inactive) | > 100 µM (inactive) | 28 µM (inactive) | > 100 µM (inactive) | > 100 µM (inactive) | > 100 µM (inactive) | 43 µM (inactive) | 33 µM (inactive) | > 100 µM (inactive) | > 100 µM (inactive) | > 100 µM (inactive) | 74.8 µM (inactive) | 5.77 µM (inactive) | 76.7 µM (inactive) | > 100 µM (inactive) |
| COc1cccc(-c2cc(=O)c3cc(N4CCCCC4)ccc3[nH]2)c1 | < 0.0186 µM (active) | < 0.01 µM (active) | < 0.01 µM (active) | 0.0434 µM (active) | < 0.0206 µM (active) | 0.024 µM (active) | < 0.01 µM (active) | < 0.01 µM (active) | 1.51 µM (inactive) | < 0.01 µM (active) | < 0.0119 µM (active) | < 0.01 µM (active) | 0.521 µM (active) | < 0.0177 µM (active) | 0.0332 µM (active) |  | < 0.0177 µM (active) | < 0.01 µM (active) |  | > 100 µM (inactive) |
